The results in this text go back to EP0486749A1, “Triarylmethane compounds and pressure sensitive recording material” (HODOGAYA CHEMICAL CO., LTD., priority 1991, dated 1992).

A short description of data set [1]: Color formation on silica gel (TLC) and light resistance of the formed color. The settings on record: for light resistance: color formed on silica gel TLC. On the procedure:
The color in the Table is the color formed on silica gel.
To a dilute hydrochloric acid aqueous solution prepared by diluting 25 parts of 35% hydrochloric acid with 130 parts of water, 30 parts of 4,4'-bisdimethylaminobenzhydrol and 22 parts of methyl 3-dimethylaminobenzoate were dissolved and reacted at a temperature of from 50 to 60°C for 5 hours. Then, 10 parts of active carbon was added thereto, and the mixture was thoroughly mixed. After removing active carbon by filtration, 150 parts of 10% sodium hydroxide and 100 parts of toluene were added to the filtrate and thoroughly mixed. The toluene layer was separated, then washed with 100 parts of water and separated. Then, this toluene layer was thoroughly dried over anhydrous sodium salfate. Then, this toluene layer was concentrated, and 100 parts of methanol was added to the residue thereby obtained. Precipitated crystals were collected by filtration and recrystallized from a solvent mixture comprising 50 parts of methanol and 50 parts of acetone to obtain 35 parts of bis((4-dimethylamino)phenyl)-(2-methoxycarbonyl-4-dimethylaminophenyl)methane.

Data set [2] can be described thus: Solubility of the color former in oil (KMC-113). The format is physicochemical. The settings on record: in KMC-113 at 50°C. From the text: To examine the solubility of a color former in oil, the solubility of benzoylleucomethylene blue in KMC-113 (product of Kureha Chemical Industries Co., Ltd.) as a typical solvent commonly employed, was investigated.
To examine the solubility in oil of the triarylmethane compounds of the present invention, the solubility in KMC-113 (product of Kureha Chemical Industries Co., Ltd.) as a typical solvent was examined.

Take `CC(C)OC(=O)c1cc(N(C)C)ccc1C(c1ccc(N(C)C)cc1)c1ccc(N(C)C)cc1` [Preparation Example 2, bis((4-dimethylamino)phenyl)-(2-isopropoxycarbonyl-4-dimethylaminophenyl)methane]: in data set [1], the light resistance result is “excellent” and the “color formed on silica gel TLC” value was “gradually formed a clear blue color”. The solubility entry in data set [2] is on record as “at least 10%”.

On to `COC(=O)c1cc(N(C)C)ccc1C(c1ccc(N(C)C)cc1C)c1ccc(N(C)C)cc1C` [Preparation Example 4, bis((2-methyl-4-dimethylamino)phenyl)-(2-methoxycarbonyl-4-dimethylaminophenyl)methane], for which, in data set [1], the light resistance result is recorded as “excellent” and the “color formed on silica gel TLC” value is on record as “gradually formed a clear blue color”.

The molecule `CN(C)c1ccc2c(c1)Sc1cc(N(C)C)ccc1N2C(=O)c1ccccc1` [benzoylleucomethylene blue, reference compound] yielded a solubility in data set [2] of 2.5%.

Consider `CCOC(=O)c1cc(N(C)C)ccc1C(c1ccc(N(C)C)cc1C)c1ccc(N(C)C)cc1C` [Preparation Example 5, bis((2-methyl-4-dimethylamino)phenyl)-(2-ethoxycarbonyl-4-dimethylaminophenyl)methane], for which, in data set [1], the light resistance result is “excellent” and the “color formed on silica gel TLC” value is “gradually formed a clear blue color”.

On to `COC(=O)c1cc(N(C)C)ccc1C(c1ccc(N(C)C)cc1)c1ccc(N(C)C)cc1` [Preparation Example 1, bis((4-dimethylamino)phenyl)-(2-methoxycarbonyl-4-dimethylaminophenyl)methane], for which, in data set [1], the light resistance result is reported as “excellent” and the “color formed on silica gel TLC” value was “gradually formed a clear blue color”. Besides, in data set [2], the solubility entry is “at least 10%”.

For `CCCCOC(=O)c1cc(N(C)C)ccc1C(c1ccc(N(C)C)cc1)c1ccc(N(C)C)cc1` [Preparation Example 3, bis((4-dimethylamino)phenyl)-(2-n-butoxycarbonyl-4-dimethylaminophenyl)methane], in data set [1], the light resistance entry is “excellent” and the “color formed on silica gel TLC” value was “gradually formed a clear blue color”. In addition, the solubility result in data set [2] is given as “at least 10%”.
